Measurements reported in patent US12409159B2, “3-hydroxybutyrate alone or in combination for use in the treatment of critical care treatment” (KATHOLIEKE UNIVERSITEIT LEUVEN, priority 2016, dated 2025).
Counter-ions that a name gives are not always drawn.

Columns and labels:
[1] = test system: mouse model of prolonged critical illness evoked by sepsis (cecal ligation and puncture); test: Ex vivo force measurement of isolated extensor digitorum longus (EDL) muscle, mouse model of prolonged critical illness evoked by sepsis; type: in vivo, mice
Description: Mice experiment 2: We examined muscle force ex vivo in lean and diet-induced obese CLP mice. […] Mice were randomly allocated to “healthy control” or “CLP.” As in experiment 1 we had observed that muscle wasting occurred irrespective of feeding, we now only compared parenterally fed with pair-fed lean (n=17) and obese (n=15) healthy mice. Until day 5, 15/18 lean and 15/18 obese CLP mice survived. After 5 days, animals were deeply anesthetized and the m. extensor digitorum longus (EDL) was carefully dissected from both hind limbs for ex vivo muscle force measurements.
(§1) We studied the effect of subcutaneous administration of D,L-3-hydroxybutyrate sodium salt on muscle wasting and weakness in a validated mouse model of prolonged critical illness evoked by sepsis (cecal ligation and puncture followed by resuscitation and intensive medical care). The intervention was studied in the parenterally fed and in the fasted state.
Muscle function was quantified in isolated extensor digitorum longus (EDL) muscle. Critical illness in parenterally fed mice (PN) reduced the absolute maximal force generated by EDL to 57% of healthy controls (p<0.0001) (FIG. 9). […]
(§2) Muscle mass and function was quantified in isolated extensor digitorum longus (EDL) muscle. […]

[2] = test system: mouse model of prolonged critical illness evoked by sepsis (cecal ligation and puncture); test: Muscle wasting: weight of isolated skeletal muscles (EDL, tibialis anterior) in prolonged critically ill mice; type: in vivo; conditions: Example 7, first experiment, fasted critically ill mice
Protocol: To control for potential illness- or resuscitation-related changes in fluid content, dry weight of isolated tissues was obtained by a freeze-drying process. Myofiber cross-sectional area (CSA) was quantified on digital microscopy images of hematoxylin and eosin stained paraffin sections with in-house designed algorithms. In addition, the presence of myofiber degeneration, necrosis and inflammation was histologically evaluated. Triglyceride content of tissues was determined with a commercial colorimetric assay (triglyceride quantification kit, Abcam, Cambridge, UK).
as §1
Muscle wasting was evaluated by quantification of the dry weight of isolated skeletal muscles. Muscle weight of the EDL muscle decreased in all critically ill mice, irrespective of hydroxybutyrate treatment or nutritional regime (1.9±0.3 mg for PN, 2.1±0.3 mg for PN+3HB, and 2.0±0.4 mg for fasting+3HB as compared with 2.7±0.3 mg in healthy control mice; p<0.0001) (FIG. 11A). […]
as §2

[3] = test system: mouse model of prolonged critical illness evoked by sepsis (cecal ligation and puncture); test: 5-day mortality in prolonged critically ill mice; type: in vivo
Description: FIG. 10. Effect of 3-hydroxybutyrate injections on 5-day mortality in prolonged critically ill mice. Black line, healthy control mice (15/15 survivors); gray line, parenterally fed critically ill mice (17/20 survivors); dash dot line; parenterally fed critically ill mice receiving 3-hydroxybutyrate (17/21 survivors); dotted line, fasted critically ill mice receiving 3-hydroxybutyrate (14/22 survivors). [PN=parenteral nutrition; 3HB=3-hydroxybutyrate].
as §1
Muscle function was quantified in isolated extensor digitorum longus (EDL) muscle. Critical illness in parenterally fed mice (PN) reduced the absolute maximal force generated by EDL to 57% of healthy controls (p<0.0001) (FIG. 9). However, when parenterally fed critically ill mice received subcutaneous twice daily a bolus of 75 mg of D,L-3-hydroxybutyrate sodium salt (PN+3HB), maximal muscle force improved dramatically to 83% of healthy controls (p<0.0001) (FIG. 9).

For `CC(O)CC(=O)O` (racemic) [D,L-3-hydroxybutyrate sodium salt], the “absolute maximal force generated by EDL, % of healthy controls” value ([1]; Example 7, first experiment, fasted critically ill mice (survivors), 3HB 75 mg subcutaneous bolus twice daily) was 33%, the “effect on muscle weakness and muscle wasting (conclusion)” value ([1]; daily supplementation to parenterally fed mice, prolonged sepsis-induced critical illness) was “largely prevented muscle weakness but not muscle wasting” and the “dry weight of the EDL muscle” value ([2]; healthy controls 2.7±0.3 mg) was 2.0 ± 0.4 mg. For the same compound, the “dry weight of the tibialis anterior muscle” value ([2]; healthy controls 12.4±1.3 mg) was 8.4 ± 1.8 mg, the 5-day survivors ([3]; fasted critically ill mice) was 14/22 and the risk of death ([3]; fasted critically ill mice, 3HB 75 mg boluses twice daily) was “increased risk of death”. The 5-day survivors ([3]; parenterally fed critically ill mice) was 17/21.
